According to US9290476B2, “Methylene linked quinolinyl modulators of RORγt” (Janssen Pharmaceutica NV, priority 2012, dated 2016):
Counter-ions that a name gives are not always drawn.

Columns and labels:
[1] = biological target: human RORγt LBD (Homo sapiens (Human), UniProt P51449); assay: RORγt reporter assay (GAL4-RORγt LBD luciferase in HEK293T cells); format: cell-based; settings: for IC50 / RORγt reporter Assay, % inhibition @ 6 μM: HEK293T cells; for IC50: 24 hours compound treatment; for inhibition at 6 µM: HEK-293T, read-out: RORγt reporter Assay, % inhibition @ 6 μM, HEK293T cells, 6 μM
Description: A reporter assay was used to test functional activity of RORγt modulatory compounds on transcriptional activation driven by the RORγt LBD. Cells used in the assay were co-transfected with two constructs. The first construct, pBIND-RORγt LBD, contained the wild type human RORγt LBD fused to the DNA binding domain of the GAL4 protein. The second construct, pGL4.31 (Promega Cat no. C935A), contained multiple GAL4 responsive DNA elements upstream of firefly luciferase. […] The mutant construct was called pBIND-RORγt-AF2.
The pBIND vector contains the GAL4 DNA Binding Domain (GAL4 DBD) and the renilla luciferase gene under control of the SV40 promoter. Renilla luciferase expression serves as a control for transfection efficiency and cell viability.
The reporter assay was performed by transiently transfecting HEK293T cells with 5 ng of pBIND-RORγt LBD or pBIND-RORγt LBD-AF2 and 5 μg pGL4.31 (Promega Cat no. C935A) using Fugene 6 ([…] Cat no. E2691) at a 1:6 ratio of DNA: Fugene 6 in a T-75 flask in which cells were at least 80% confluent. Twenty four hours after bulk transfection, cells were plated into 96-well plates at 50,000 cells/well in phenol-red free DMEM containing 5% Lipid Reduced FCS and Pen/Strep. Six hours after plating, cells were treated with compounds for 24 hours. Media was removed and cells were lysed with 50 μL 1× Glo Lysis Buffer (Promega). Dual Glo Luciferase Reagent (50 μL/well) was then added and firefly luciferase luminescence was read on an Envision after a ten minute incubation. Finally, Stop and Glo reagent (50 μL/well) was added and renilla luciferase luminescence was read on an Envision after a ten minute incubation. To calculate the effect of compounds on RORγt activity, the ratio of firefly to renilla luciferase was determined and plotted against compound concentration. Agonist compounds increase RORγt-driven luciferase expression, and antagonist or inverse agonist compounds decrease luciferase expression.

[2] = biological target: human RORγt ligand binding domain (RORγt LBD) (Homo sapiens (Human), UniProt P51449); assay: RORγt ThermoFluor assay (thermal shift binding affinity); settings: estimated from thermal shift
Procedure: This approach is applicable to a wide variety of systems, and rigorous in theoretical interpretation through quantitation of equilibrium binding constants (KD).
The shift in the melting point described as a ΔTm is proportional to the concentration and affinity of the ligand.
RORγt ThermoFluor® Assay Construct
Protein and compound solutions are dispensed into black 384-well polypropylene PCR microplates (Abgene) and overlayed with silicone oil (1 μL, Fluka, type DC 200) to prevent evaporation.
Bar-coded assay plates are robotically loaded onto a thermostatically controlled PCR-type thermal block and then heated at a typical ramp-rate of 1° C./min for all experiments. Fluorescence was measured by continuous illumination with UV light (Hamamatsu LC6) supplied via fiber optic and filtered through a band-pass filter (380-400 nm; >6 OD cutoff). Fluorescence emission of the entire 384-well plate was detected by measuring light intensity using a CCD camera (Sensys, Roper Scientific) filtered to detect 500±25 nm, resulting in simultaneous and independent readings of all 384 wells. Images were collected at each temperature, and the sum of the pixel intensity in a given area of the assay plate was recorded versus temperature. Reference wells contained RORγt without compounds, and the assay conditions were as follows: • 0.065 mg/mL RORγt • 60 μM 1,8-ANS • 100 mM Hepes, pH 7.0 • 10 mM NaCl • 2.5 mM GSH • 0.002% Tween-20
Project compounds were arranged in a pre-dosed mother plate (Greiner Bio-one) wherein compounds are serially diluted in 100% DMSO by 1:2 from a high concentration of 10 mM over 12 columns within a series (column 12 is a reference well containing DMSO, no compound). The compounds were robotically dispensed directly into assay plates (1×=46 nL) using a Hummingbird capillary liquid handling instrument (Digilab). Following compound dispense, protein and dye in buffer was added to achieve the final assay volume of 3 μL, followed by 1 μL of silicone oil.

Sequence of human RORγt LBD (P51449 258-518): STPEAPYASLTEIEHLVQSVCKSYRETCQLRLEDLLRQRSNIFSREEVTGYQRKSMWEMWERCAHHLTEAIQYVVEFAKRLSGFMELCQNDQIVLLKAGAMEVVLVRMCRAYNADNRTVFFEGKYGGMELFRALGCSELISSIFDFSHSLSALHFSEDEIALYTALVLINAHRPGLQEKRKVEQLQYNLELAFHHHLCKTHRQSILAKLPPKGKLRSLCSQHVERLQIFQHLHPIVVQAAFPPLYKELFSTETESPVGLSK
Sequence of human RORγt ligand binding domain (RORγt LBD) (P51449 other isoform, or with tags, fused parts or gaps): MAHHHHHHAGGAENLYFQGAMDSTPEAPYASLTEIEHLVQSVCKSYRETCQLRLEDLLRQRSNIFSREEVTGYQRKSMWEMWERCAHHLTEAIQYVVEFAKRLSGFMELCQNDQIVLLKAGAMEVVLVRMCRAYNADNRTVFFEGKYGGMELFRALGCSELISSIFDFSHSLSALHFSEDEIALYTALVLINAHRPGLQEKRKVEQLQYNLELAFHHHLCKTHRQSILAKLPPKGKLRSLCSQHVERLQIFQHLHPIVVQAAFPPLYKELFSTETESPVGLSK

SMILES	IC50 [1]	inhibition at 6 µM [1]	Kd [2]	RORγt reporter Assay, % inhibition @ 6 μM [1]
COc1ccc(C(O)(c2ccc3nc(Cl)c(Cc4ccccc4)c(Cl)c3c2)c2cncs2)cn1 (stereo not drawn) [Example 18, (3-Benzyl-2,4-dichloroquinolin-6-yl)(6-methoxypyridin-3-yl)(thiazol-5-yl)methanol]	> 6 µM	41%	0.0045 µM	–
Cn1cncc1C(O)(c1ccc(C(F)(F)F)nc1)c1ccc2nc(N3CCC3)c(Cc3ccc(C(F)(F)F)cc3)c(Cl)c2c1 (racemic) [Example 92A, (2-(Azetidin-1-yl)-4-chloro-3-(4-(trifluoromethyl)benzyl)quinolin-6-yl)(1-methyl-1H-imidazol-5-yl)(6-(trifluoromethyl)pyridin-3-yl)methanol]	0.029 µM	100%	0.0025 µM	–
Cn1cncc1C(O)(c1ccc(C(F)(F)F)nc1)c1ccc2nc(C#N)c(Cc3ccc(-n4cccn4)cc3)cc2c1 (single isomer, unassigned) [Example 70C, 3-(4-(1H-Pyrazol-1-yl)benzyl)-6-(hydroxy(1-methyl-1H-imidazol-5-yl)(6-(trifluoromethyl)pyridin-3-yl)methyl)quinoline-2-carbonitrile]	1.6 µM	–	16 µM	85%
COc1ccc(Cc2c(Cl)nc3ccc(C(O)(c4cccnc4)c4cccc(Cl)c4)cc3c2Cl)cc1 (stereo not drawn) [Example 6, (3-Chlorophenyl)-(2,4-dichloro-3-(4-methoxybenzyl)quinolin-6-yl)-(pyridin-3-yl)methanol.TFA]	~2 µM	96%	0.015 µM	–
CCN(CC)c1nc2ccc(C(O)(c3ccc(C(F)(F)F)nc3)c3cncn3C)cc2c(C#N)c1Cc1ccc(-n2cccn2)cc1 (single isomer, unassigned) [Example 74C, 3-(4-(1H-Pyrazol-1-yl)benzyl)-2-(diethylamino)-6-(hydroxy(1-methyl-1H-imidazol-5-yl)(6-(trifluoromethyl)pyridin-3-yl)methyl)quinoline-4-carbonitrile]	0.93 µM	–	21 µM	90%
CCOc1nc2ccc(C(O)(c3ccc(Cl)cc3)c3cncn3C)cc2c(Cl)c1Cc1ccccc1 (stereo not drawn) [Example 14, (3-Benzyl-4-chloro-2-ethoxyquinolin-6-yl)(4-chlorophenyl)(1-methyl-1H-imidazol-5-yl)methanol.TFA]	0.56 µM	74%	0.091 µM	–
CCOc1nc2ccc(C(O)(c3cncs3)c3cncn3C)cc2cc1Cc1ccc(OC)cc1 (stereo not drawn) [Example 24, (2-Ethoxy-3-(4-methoxybenzyl)quinolin-6-yl)(1-methyl-1H-imidazol-5-yl)(thiazol-5-yl)methanol.TFA]	> 6 µM	35%	0.75 µM	–
Cn1cncc1C(O)(c1ccc(C(F)(F)F)nc1)c1ccc2nc(N3CCC3)c(Cc3ccc(-n4cccn4)cc3)c(Cl)c2c1 (stereo not drawn) [Example 68A, (3-(4-(1H-Pyrazol-1-yl)benzyl)-2-(azetidin-1-yl)-4-chloroquinolin-6-yl)(1-methyl-1H-imidazol-5-yl)(6-(trifluoromethyl)pyridin-3-yl)methanol]	0.21 µM	99%	0.0083 µM	–
Cn1cncc1C(O)(c1ccc(Cl)cc1)c1ccc2nc(O)c(Cc3ccc(-n4cccn4)cc3)c(Cl)c2c1 (single isomer, unassigned) [Example 55B, 3-(4-(1H-pyrazol-1-yl)benzyl)-4-chloro-6-((4-chlorophenyl)(hydroxy)(1-methyl-1H-imidazol-5-yl)methyl)quinolin-2-ol]	2.4 µM	85%	> 81 µM	–
COc1nc2ccc(C(O)(c3ccc(F)cc3)c3cncn3C)cc2c(Cl)c1Cc1ccc(S(C)(=O)=O)cc1 (single isomer, unassigned) [Example 54B, (4-chloro-2-methoxy-3-(4-(methylsulfonyl)benzyl)quinolin-6-yl)(4-fluorophenyl)(1-methyl-1H-imidazol-5-yl)methanol]	2 µM	86%	0.84 µM	–
